Experimental data reported in patent US20020019344A1, “Methods of preventing allograft rejection” (priority 2000, published 2002).
Read-outs that look alike come from different tables or passages of the source.

Tests used:
monocyte/macrophages = conditions: Thieringer et al.; cited from earlier work
[1] = tested on: IL-2 secretion in human T lymphocytes; assay: Inhibition of PHA/PMA-induced IL-2 secretion in human T lymphocytes; assay type: cell-based; conditions: for activation of IL-2 production: 5 micromolar, preincubation 12 hours prior to activator
Description: The following test can be used to detect whether an insulin sensitizing agent is also able to inhibit IL-2 production. Isolated human T lymphocytes or a mammalian lymphocyte cell line which expresses PPARgamma is stimulated with one or a combination of PHA/PMA, TNF-alpha, interferon-gamma or some other factor that activates induction of IL-2 gene expression. Production of IL-2 is determined by measuring the concentration of IL-2 in the supernatant from cells using Endogen kits (Wolbum), as described by Yang et al.

NF-kappaB = assay: Inhibition of NF-kappaB activation, electrophoretic mobility shift assay; assay type: cell-based, human; conditions: 5 micromolar; preincubation 2 hours prior to activator
Description: The following test can be used to generically identify compounds of use in this invention based upon their ability to act as an agonist of PPAR. […] The rexinoid, LG100754 is a selective RXR/PPARgamma agonists. These compounds are tested for the ability to inhibit activity of NF-kappaB. Isolated human T lymphocytes or a mammalian cell line such as a Jurkat T cell line which expresses PPARgamma is stimulated with a concentration of one or a combination of: phytohemagglutinin/phorbol 12-myristate 13-acetate (PHA/PMA), TNF-alpha, interferon-gamma or some other factor that activates NF-kappaB. Activation of NF-kappaB is determined by electrophoretic mobility shift assay similar to that described by Rossi et al.

NFAT = assay: Inhibition of NFAT activation, electrophoretic mobility shift assay; assay type: cell-based, human; conditions: 5 micromolar; preincubation 2 hours prior to activator
Description: Isolated human T lymphocytes or a mammalian cell line such as a Jurkat T cell line which expresses PPARgamma is stimulated with a concentration of one or a combination of PHA/PMA, TNF-alpha, interferon-gamma or some other factor that activates NFAT. Transcriptional activation of NFAT is determined by electrophoretic mobility shift assay similar to that described by Yang et al.

[2] = 10 uM, preincubated with drug for 24 hr, +PHA/PMA

SMILES: Cc1oc(-c2ccccc2)nc1C(O)COc1ccc(CC2SC(=O)NC2=O)cc1 (centres unmarked) [AD-5075]
- effect on TNF-alpha and lipopolysaccharide production (monocyte/macrophages): no effect

SMILES: CN(CCOc1ccc(CC2SC(=O)NC2=O)cc1)C(=O)CCCCC1CCSS1 (centres unmarked) [BP1-003]
- IL-2 released [1, 2]: 37 ± 7 pg/ml supernatant
- Percent Inhibition [1, 2]: 92%

SMILES: CCCOc1cc2c(cc1\C(C)=C/C=C/C(C)=C/C(=O)O)C(C)(C)CCC2(C)C [LG100754]
- activation of IL-2 production [1]: inhibits the activation of IL-2 production
- activation of NF-kappaB (NF-kappaB): inhibits the activation of NF-kappaB
- activation of NFAT (NFAT): inhibits the activation of NFAT

SMILES: CCCCC[C@H](O)/C=C/[C@H]1C(=O)C=C[C@@H]1C/C=C\CCCC(=O)O [prostaglandin J2]
- activation of IL-2 production [1]: inhibits the activation of IL-2 production
- activation of NF-kappaB (NF-kappaB): inhibits the activation of NF-kappaB
- activation of NFAT (NFAT): inhibits the activation of NFAT

SMILES: CN(CCOc1ccc(CC2SC(=O)NC2=O)cc1)c1ccccn1 (centres unmarked) [rosiglitazone]
- IL-2 released ([1]; 0.1 uM, preincubated with drug for 12 hr, +PHA/PMA): 481 ± 11 c.p.m.
- IL-2 released ([1]; 1.0 uM, preincubated with drug for 12 hr, +PHA/PMA): 406 ± 12 c.p.m.
- IL-2 released ([1]; 10 uM, preincubated with drug for 12 hr, +PHA/PMA): 323 ± 26 c.p.m.
- IL-2 released [1, 2]: 112 ± 7 pg/ml supernatant
- inhibition at 0.1 µM ([1]; Homo sapiens, T-lymphocyte, 0.1 uM, preincubated with drug for 12 hr, +PHA/PMA, read-out: Percent Inhibition): 12%
- inhibition at 1 µM ([1]; Homo sapiens, T-lymphocyte, 1.0 uM, preincubated with drug for 12 hr, +PHA/PMA, read-out: Percent Inhibition): 25%
- inhibition at 10 µM ([1]; Homo sapiens, T-lymphocyte, 10 uM, preincubated with drug for 12 hr, +PHA/PMA, read-out: Percent Inhibition): 41%
- inhibition at 10 µM ([1]; Homo sapiens, T-lymphocyte, 10 uM, preincubated with drug for 24 hr, +PHA/PMA, read-out: Percent Inhibition): 75%
